Measurements as given in PMC5949855 (2015).

What was measured:
[1] = tested on: HT21 (DNA, G4) GGGTTAGGGTTAGGGTTAGGG; test: ITC; conditions: for K a1: two-event model, high-affinity site
[2] = tested on: HT21 (DNA, G4) GGGTTAGGGTTAGGGTTAGGG; test: UV melting; conditions: NH4+ 30 mM, compound concentration not given in material
[3] = tested on: HT21 (DNA, G4) GGGTTAGGGTTAGGGTTAGGG; test: UV melting, 295 nm; conditions: no monovalent cation added; compound concentration not given in material
[4] = tested on: L-HT21 (L-DNA, G4, all nucleotides L-DNA (enantiomer of HT21)) GGGTTAGGGTTAGGGTTAGGG; test: CD; conditions: NH4+ 30 mM; mirror image CD of the HT21 complex
[5] = NH4+ 30 mM, 20 mM MOPS pH 6.5, 298 K
[6] = value given for CuL1-CuL4 together

In the case of `O=[N+]([O-])[O-].O=[N+]([O-])[O-].[Cu+2].c1ccc(-c2cccc(-c3ccccn3)n2)nc1`, the binding ([1]; NH4+ 30 mM, 20 mM MOPS pH 6.5, 298 K, affinity too low to be determined) is reported as “weak” and the ΔTm [2] is reported as ~ 5 °C.

In the case of `O=[N+]([O-])[O-].O=[N+]([O-])[O-].[Cu+2].c1ccc(-c2cc(-c3ccc(OCCN4CCCCC4)cc3)cc(-c3ccccn3)n2)nc1`, the “K a1” value [1, 5] is reported as “(1.7 ± 0.3) × 10^7 M^–1” and the ΔTm [2, 6] is reported as ~ 20 °C.

`CN(C)CCOc1ccc(-c2cc(-c3ccccn3)nc(-c3ccccn3)c2)cc1.O=[N+]([O-])[O-].O=[N+]([O-])[O-].[Cu+2]` was tested, and the “K a1” value [1, 5] was “(1.7 ± 0.3) × 10^7 M^–1” and the ΔTm [2, 6] was ~ 20 °C.

In the case of `Cc1ccc(-c2cc(-c3ccccn3)nc(-c3ccccn3)c2)cc1.O=[N+]([O-])[O-].O=[N+]([O-])[O-].[Cu+2]`, the Ka ([1]; NH4+ 30 mM, 20 mM MOPS pH 6.5, 298 K, one-event binding model) is reported as “(2.0 ± 0.5) × 10^5 M^–1” and the ΔTm [2] is reported as ~ 10 °C.

`O=[N+]([O-])[O-].O=[N+]([O-])[O-].[Cu+2].c1ccc(-c2cc(-c3ccc(OCCN4CCCC4)cc3)cc(-c3ccccn3)n2)nc1` was tested, and the ΔTm [3] was ~ 13 °C, the “K a1” value [1, 5] was “(1.7 ± 0.2) × 10^7 M^–1” and the Ka ([1]; no monovalent cation added, 298 K, three-event model, first (strongest) event) was “(1.5±0.6)E8 M^-1”. For the same compound, the ΔTm [2, 6] was ~ 20 °C and the binding [4] was “yes”.

For `O=[N+]([O-])[O-].O=[N+]([O-])[O-].[Cu+2].c1ccc(-c2cc(-c3ccc(OCCN4CCOCC4)cc3)cc(-c3ccccn3)n2)nc1`, the “K a1” value [1, 5] was “(1.7 ± 0.3) × 10^7 M^–1” and the ΔTm [2, 6] was ~ 20 °C.
